Experiments:
Format in all cases: in vivo
[1] = test system: SPF grade male C57BL/6J mice; assay: Mouse tail suspension test; conditions: 3.33 mg/kg by gavage daily for one month, last 4 minutes of 6 minutes, x ± SE
Procedure: (§1) 72 SPF grade male C57BL/6J mice which are 20±2 g in weight are selected. 6 mice are kept in each cage, free to forage and drink, and kept in a room with controlled light, temperature and humidity: the temperature is 21° C.±2° C., the humidity is 50%±10%, and the light and dark cycle is 12 hours/12 hours (light on at 20:00, light off at 8:00). All animal experiments are carried out in accordance with the guidelines on laboratory animal welfare and use issued by NIH.
(§2) After arrival, the mice are allowed to acclimate for one week before entering experiments.
(§3) The mice in the normal group are given the same volume of purified water by gavage, and the gavage doses for the mice in other groups are shown in the result tables. The mice are treated by gavage at a fixed time (9:00) every morning with a gavage volume of 0.1 mL·10 g^−1, and the administration is lasted for one month. A behavioral test is performed 1 hour after the last gavage.
In the tail suspension test, medical tape is used to suspend each mouse at ⅓ of the tail tip on a tail suspension device. The mice are suspended vertically with the heads facing camera lens, and are about 30 cm above the ground. The immobility time of each group of mice in the tail suspension test is recorded by a video camera for 6 minutes, and the tail suspension immobility time of the mice is calculated according to the last 4 minutes. […]

[2] = test system: SPF grade male C57BL/6J mice; assay: Mouse open field test; conditions: 3.33 mg/kg by gavage daily for one month; 6 minutes; x ± SE
Procedure: The test is performed in an open field box with a length of 50 cm, a width of 50 cm, and a depth of 50 cm. The bottom surface of the open field box is equally divided into 9 squares, the area right in the middle is a central area, and the remaining areas are peripheral areas. The bottom and four sides of the open field box are all white. The test is performed in a quiet and weak red light environment. […] The total movement distance of the mice, the movement distance in the central area and the number of standing-uprights are recorded.

[3] = test system: SPF grade male C57BL/6J mice; assay: Mouse forced swimming test (Embodiment 9); conditions: 3.33 mg/kg by gavage daily for one month, 5 minutes formal test, x ± SE
Procedure: as §1, §2, §3
When forced to swim, all the animals are respectively put in a plexiglass cylinder with a water temperature of 23° C.±1° C. and a water depth of 20 cm. After 15 minutes, the animals are transferred to a dry environment with a temperature of 30° C. and kept for 30 minutes (pretest). After 24 hours, the mice are put into the plexiglass cylinder again and kept for 5 minutes (formal test). A video camera is used during the test for recording. […]

Compound: CNCCC(Oc1ccc(C(F)(F)F)cc1)c1ccccc1 (stereo not drawn) [Fluoxetine, fluoxetine]
- Tail suspension immobility time [1]: 59.62 ± 6.270 s
- Tail suspension immobility time ([1]; listed as fluoxetine): significantly shorter
- Number of standing-uprights [2]: 29.20 ± 2.133
- Total movement distance [2]: 18435 ± 950.6 mm
- Number of floating immobilities [3]: 54.64 ± 2.704
- Number of floating immobilities ([3]; listed as fluoxetine): significantly lower

From patent publication US11642388B2, “Antidepressant compound preparation and preparation method thereof” (Chenland Nutritionals Inc., priority 2020, dated 2023)
